Values joined by “and” are separate entries in the source; they are usually repeats but may differ in a detail not shown here. Identical values can stand only once.
Settings: 101.33 kPa, Liquid; for electrical conductivity: Parallel Plate Conductive Cell; for kinematic viscosity: Capillary tube (Ostwald / Ubbelohde) method

CCCCCC[n+]1ccn(C)c1.O=S(=O)([N-]S(=O)(=O)C(F)(F)F)C(F)(F)F
Settings | electrical conductivity | kinematic viscosity [m2/s]
278.15 K | 0.0783 S/m | –
283.15 K | 0.104 S/m | –
288.15 K | 0.136 S/m | –
293.15 K | 0.173 S/m | –
298.15 K | 0.217 S/m and 0.218 S/m | 5.06e-05
303.15 K | 0.268 S/m | 4.04e-05
308.15 K | 0.326 S/m | –
313.15 K | 0.391 S/m | –
313.16 K | – | 2.7e-05
323.15 K | 0.543 S/m | 1.9e-05
333.15 K | 0.726 S/m | 1.39e-05
343.15 K | – | 1.06e-05

From the NIST ThermoML archive (doi:10.1007/s10765-009-0584-4)
